Test results from the NIST ThermoML archive (doi:10.1021/je400790d).

Test: mn = molality of the nth substance listed, in mol/kg
Conditions: 100 kPa, Liquid, Vibrating tube method

CCCCCCCC[N+]1(C)CCOCC1.O=S(=O)([N-]S(=O)(=O)C(F)(F)F)C(F)(F)F + CC#N
mass density [kg/m3]
Conditions | m1 = 0.00838 | m1 = 0.01564 | m1 = 0.02472 | m1 = 0.03714 | m1 = 0.05106 | m1 = 0.06653 | m1 = 0.08502 | m1 = 0.1052 | m1 = 0.1294 | m1 = 0.1609
298.15 K | 777.974 | 779.195 | 780.71 | 782.766 | 785.044 | 787.549 | 790.507 | 793.696 | 797.448 | 802.25
303.15 K | 772.547 | 773.77 | 775.289 | 777.348 | 779.63 | 782.14 | 785.101 | 788.29 | 792.039 | 796.85
308.15 K | 767.094 | 768.318 | 769.839 | 771.899 | 774.185 | 776.698 | 779.664 | 782.856 | 786.61 | 791.423
313.15 K | 761.606 | 762.833 | 764.357 | 766.421 | 768.71 | 771.222 | 774.189 | 777.385 | 781.149 | 785.97
318.15 K | 756.08 | 757.311 | 758.838 | 760.906 | 763.198 | 765.716 | 768.695 | 771.901 | 775.667 | 780.493

CC[N+]1(C)CCOCC1.O=S(=O)([N-]S(=O)(=O)C(F)(F)F)C(F)(F)F + CC#N
mass density [kg/m3]
Conditions | m1 = 0.009434 | m1 = 0.01654 | m1 = 0.02652 | m1 = 0.03788 | m1 = 0.05256 | m1 = 0.06858 | m1 = 0.08695 | m1 = 0.1078 | m1 = 0.1316 | m1 = 0.1634
298.15 K | 778.145 | 779.333 | 780.985 | 782.85 | 785.24 | 787.81 | 790.74 | 794.037 | 797.714 | 802.54
303.15 K | 772.716 | 773.905 | 775.56 | 777.429 | 779.815 | 782.385 | 785.318 | 788.611 | 792.286 | 797.108
308.15 K | 767.263 | 768.452 | 770.11 | 771.974 | 774.365 | 776.944 | 779.877 | 783.146 | 786.836 | 791.661
313.15 K | 761.774 | 762.964 | 764.619 | 766.483 | 768.876 | 771.442 | 774.373 | 777.657 | 781.334 | 786.155
318.15 K | 756.247 | 757.44 | 759.113 | 760.976 | 763.372 | 765.945 | 768.855 | 772.158 | 775.832 | 780.648

CCCC[N+]1(C)CCOCC1.O=S(=O)([N-]S(=O)(=O)C(F)(F)F)C(F)(F)F + CC#N
mass density [kg/m3]
Conditions | m1 = 0.00879 | m1 = 0.01653 | m1 = 0.02761 | m1 = 0.03802 | m1 = 0.05226 | m1 = 0.06737 | m1 = 0.08642 | m1 = 0.1101 | m1 = 0.13 | m1 = 0.1623
298.15 K | 778.005 | 779.272 | 781.074 | 782.759 | 785.036 | 787.436 | 790.427 | 794.115 | 797.144 | 802.019
303.15 K | 772.575 | 773.845 | 775.647 | 777.331 | 779.607 | 781.999 | 784.994 | 788.679 | 791.717 | 796.577
308.15 K | 767.12 | 768.39 | 770.192 | 771.873 | 774.153 | 776.549 | 779.543 | 783.226 | 786.253 | 791.135
313.15 K | 761.631 | 762.901 | 764.703 | 766.385 | 768.667 | 771.064 | 774.057 | 777.74 | 780.771 | 785.644
318.15 K | 756.103 | 757.375 | 759.178 | 760.862 | 763.147 | 765.551 | 768.552 | 772.235 | 775.257 | 780.136
